Test results: ChEMBL document CHEMBL5727303, “Substituted perhydropyrrolo[3,4-c]pyrrole derivatives and the use of same” (2019)

Columns and labels:
[1] = biological target: Potassium channel subfamily K member 3 (Homo sapiens, UniProt O14649); experiment: (§1) In Vitro Electrophysiological Assay: In Vitro Electrophysiological Analysis of the Human TASK-1 and TASK-3 Channels Via Two-Electrode Voltage Clamp Technique in Xenopus laevis OocytesSubsequently, the oocytes were injected with 0.5-5 ng of a cRNA solution coding for TASK-1 or TASK-3. For the electrophysiological analysis of the channel proteins expressed in the oocytes, the two-electrode voltage clamp technique was used. The measurements were conducted at room temperature (21-22° C.) using a Turbo TEC 10CD amplifier (NPI), recorded at 2 kHz and filtered with 0.4 kHz. Substance administration was performed using a gravitation-driven perfusion system. Here, the oocyte is located in a measuring chamber and exposed to the solution stream of 10 ml/min. The level in the measuring chamber is monitored and regulated by sucking off the solution using a peristaltic pump.; assay type: cell-based
[2] = biological target: Potassium channel subfamily K member 9 (Homo sapiens, UniProt Q9NPC2); experiment: as §1; assay type: cell-based
Sequence of Potassium channel subfamily K member 9 (Q9NPC2 whole entry): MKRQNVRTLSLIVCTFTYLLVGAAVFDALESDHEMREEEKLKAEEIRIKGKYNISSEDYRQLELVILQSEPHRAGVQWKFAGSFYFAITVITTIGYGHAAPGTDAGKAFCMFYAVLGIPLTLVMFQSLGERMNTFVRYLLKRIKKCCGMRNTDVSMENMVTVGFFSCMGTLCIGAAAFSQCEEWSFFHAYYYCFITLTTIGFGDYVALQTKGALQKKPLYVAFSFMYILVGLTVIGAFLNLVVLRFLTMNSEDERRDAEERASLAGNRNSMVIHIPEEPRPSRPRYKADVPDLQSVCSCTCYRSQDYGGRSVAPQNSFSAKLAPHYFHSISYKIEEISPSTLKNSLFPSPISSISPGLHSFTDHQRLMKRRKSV

Sequence of Potassium channel subfamily K member 3 (O14649 whole entry, the tested form may be a part): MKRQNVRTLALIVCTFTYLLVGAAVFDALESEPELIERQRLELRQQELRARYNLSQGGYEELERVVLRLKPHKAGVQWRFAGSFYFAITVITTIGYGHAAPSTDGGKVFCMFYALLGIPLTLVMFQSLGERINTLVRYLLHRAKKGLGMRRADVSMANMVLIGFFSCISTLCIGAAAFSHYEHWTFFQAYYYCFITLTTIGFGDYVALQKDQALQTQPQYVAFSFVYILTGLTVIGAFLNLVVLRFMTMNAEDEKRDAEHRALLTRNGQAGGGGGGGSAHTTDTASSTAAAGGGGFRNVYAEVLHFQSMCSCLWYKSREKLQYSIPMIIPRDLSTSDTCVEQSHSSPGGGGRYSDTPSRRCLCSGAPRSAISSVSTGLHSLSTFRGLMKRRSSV

**Q.** What does the source list for `CCOc1ccccc1NC(=O)N1CC2CN(Cc3c(-c4ccc(Br)cc4)nc4ccccn34)CC2C1` (configuration not stated)?
**A.** IC50 [1]: 0.74 µM; IC50 [2]: 3.7 µM
